Experimental data taken from ChEMBL document CHEMBL5614464, “Geldanamycin, a Naturally Occurring Inhibitor of Hsp90 and a Lead Compound for Medicinal Chemistry” (J Med Chem, 2024).

Assays:
[1] = Inhibition of recombinant HSP90 (unknown origin); set-up: species or system Homo sapiens
SK-OV-3 = assay: Antiproliferative activity against human SK-OV-3 cells assessed as reduction in cell viability incubated for 48 hrs by MTT assay; type: functional, cell-based; settings: SK-OV-3, 48 h
PC-3 = assay: Antiproliferative activity against human PC-3 cells assessed as reduction in cell viability incubated for 48 hrs by MTT assay; type: functional, cell-based; settings: PC-3, 48 h

Row | IC50 [1] [nM] | IC50 (SK-OV-3) [nM] | IC50 (PC-3) [nM] | Compound
1 | 1700 |  |  | CO[C@H]1/C=C\C=C(/C)C(=O)NC2=CC(=O)C(c3ccccc3)=C(C[C@@H](C)C[C@H](OC)[C@H](O)[C@@H](C)/C=C(\C)[C@@H]1OC(N)=O)C2=O
2 |  | 580 | 580 | COC1=C2C[C@@H](C)C[C@H](OC)[C@H](O)[C@@H](C)/C=C(\C)[C@H](OC(N)=O)[C@@H](OC)/C=C\C=C(/C)C(=O)NC(=CC1=O)C2=O [GELDANAMYCIN]
